According to ChEMBL document CHEMBL3639015, “Bicyclic compound or salt thereof” (2014):

Target: Heat shock protein HSP 90-alpha (Homo sapiens, UniProt P07900)
Test: AlphaScreen Competitive Assay: HSP90-binding activity was determined by an AlphaScreen competitive assay system. The purified HSP90 solution was diluted with a binding buffer (50 mM Tris-HCl (pH 7.5), 150 mM NaCl, 0.1% Triton-X 100, 1 mM DTT, 0.1% BSA) and added to a 384-well plate (#3673, Corning Inc.) containing test substances. After reaction at room temperature for 2 hours, biotinylated geldanamycin was added thereto at a concentration of 40 nM/well and further reacted for 1 hour. Detection mix (20 mM HEPES-KOH (pH 7.5), 0.5% BSA, 0.04 mg/mL Nickel Chelate Acceptor beads, 0.04 mg/mL Streptavidin-coated Donor beads) (#6760619C, PerkinElmer, Inc.) was added to each well in an amount equal to the amount of the reaction solution and reacted at room temperature for 1 hour in the dark. Then, fluorescence intensity was measured using Multilabel Plate Reader EnVision (PerkinElmer, Inc.).

SMILES	IC50 [µM]
CC(C)Cn1cc(-c2cn(-c3cccc4c(-c5ccc(C(N)=O)c(NC6CCC(O)CC6)c5)nccc34)cn2)cn1 (stereo not drawn)	0.28
Cn1cc(-c2cn(-c3cccc4c(-c5ccc(C(N)=O)c(NC6CCCCCC6)c5)nccc34)cn2)cn1	0.27
CCNc1cc(-c2nccc3c(-n4cnc(-c5cnn(C)c5)c4)cccc23)ccc1C(N)=O	0.19
CC(C)(C)Nc1cc(-c2cc(C(F)(F)F)nc3c(-n4cnc(-c5ccccc5)c4)cccc23)ccc1C(N)=O	3.39
Cn1cc(-c2cn(-c3cccc4c(-c5ccc(C(N)=O)c(NCC6CC6)c5)cc(C(F)(F)F)nc34)cn2)cn1	0.22
NCC(=O)OC1CCC(Nc2cc(-c3nccc4c(-c5cnc6ccccc6c5)cccc34)ccc2C(N)=O)CC1 (stereo not drawn)	0.45
NC(=O)c1ccc(-c2nccc3c(-c4cncc(N)c4)cccc23)cc1NC1CCC(O)CC1 (stereo not drawn)	0.06
CCNc1cc(-c2cc(C(F)(F)F)nc3c(-n4cnc(-c5cnn(C(F)F)c5)c4)cccc23)ccc1C(N)=O	0.23
